Data as given in PMC4351541 (Scientific Reports, 2015).

What was measured:
[1] = molecular target: nAChRs (L. migratoria manilensis α1 and R. norvegicus β2) (Locusta migratoria manilensis, UniProt P12390+W6ECM5); assay: Two-electrode voltage-clamp agonist dose-response on nAChRs expressed in Xenopus oocytes, with or without Na+/K+ ATPase; assay type: cell-based; settings: for effect of Na^+/K^+ ATPase co-expression on agonist sensitivity: co-expression of Na^+/K^+ ATPase vs nAChRs alone, increase not removed by ouabain
Excerpt: To characterize the influence of Na^+/K^+ ATPase on nAChR function, nAChRs were expressed with or without Na^+/K^+ ATPase in Xenopus oocytes.
(B) Does-response curves for nicotine. (C) Does-response curves for imidacloprid. The curves from the oocytes expressing nAChRs (L. migratoria manilensis subunit α1 and R. norvegicus subunit β2) were indicated by open squares. The curves from the oocytes co-expressing nAChRs and Na^+/K^+ ATPase (subunit α1 and β1) were indicated by solid triangles (without ouabain) and open triangles (with ouabain).
(§1) The L. migratoria manilensis subunit α1 (KF813096) and subunit β1 (KF813099) of Na^+/k^+ ATPase, and subunit α1 (KF873578) of nAhCRs were subcloned into the expression vector pGH19 at sites of BamHIand XbaI, BamHI and ApaI, and EcoRI and XbaI, respectively. Rattus norvegicus β2 subunit (L31622) was also subcloned into the expression vector pGH19 as described previously. The cRNAs of all subunits were generated as described previously. Xenopus oocyte preparation and cRNA injection were performed as described previously. Electrophysiological recordings were made using a two-electrode voltage clamp (Multiclamp 700B Amplifier; Axon Instruments, Foster, CA, USA) as previously described. The measurement of the current of Na^+/K^+ ATPase was performed as described.
Differences in responses (currents), Imax and EC50 values were analyzed by one-way ANOVA with at least three repeats (different batches of oocytes from different frogs). Multiple comparisons between the groups were performed using S-N-K method. The level of significance for results was set at p < 0.05.

[2] = test system: Na^+/K^+ ATPase (α1 and β1); assay: Pump-mediated steady-state current of Na+/K+ ATPase in Xenopus oocytes (two-electrode voltage clamp); assay type: cell-based, Locusta migratoria manilensis; settings: for effect on Na^+/K^+ ATPase steady-state current directly: oocytes expressing Na^+/K^+ ATPase without nAChRs, 1 μM nicotine and 1 μM DHβE
Protocol: as §1

Chain of nAChRs (L. migratoria manilensis α1 and R. norvegicus β2) (W6ECM5 21-570): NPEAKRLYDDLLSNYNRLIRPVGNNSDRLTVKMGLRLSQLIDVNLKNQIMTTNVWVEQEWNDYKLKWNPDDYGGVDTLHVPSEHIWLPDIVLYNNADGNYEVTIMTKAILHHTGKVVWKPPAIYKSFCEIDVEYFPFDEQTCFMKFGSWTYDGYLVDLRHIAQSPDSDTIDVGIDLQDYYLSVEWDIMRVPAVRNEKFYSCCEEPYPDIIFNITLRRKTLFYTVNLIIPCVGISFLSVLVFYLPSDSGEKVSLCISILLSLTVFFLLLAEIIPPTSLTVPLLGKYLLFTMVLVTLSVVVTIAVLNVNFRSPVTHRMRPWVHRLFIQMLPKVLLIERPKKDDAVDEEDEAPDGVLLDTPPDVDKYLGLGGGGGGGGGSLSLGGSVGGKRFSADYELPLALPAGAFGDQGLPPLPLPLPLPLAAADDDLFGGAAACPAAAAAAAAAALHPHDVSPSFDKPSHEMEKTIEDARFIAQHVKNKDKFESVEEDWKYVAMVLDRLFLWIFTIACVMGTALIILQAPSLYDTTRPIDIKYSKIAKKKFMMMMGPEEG
Chain of nAChRs (L. migratoria manilensis α1 and R. norvegicus β2) (P12390 25-500): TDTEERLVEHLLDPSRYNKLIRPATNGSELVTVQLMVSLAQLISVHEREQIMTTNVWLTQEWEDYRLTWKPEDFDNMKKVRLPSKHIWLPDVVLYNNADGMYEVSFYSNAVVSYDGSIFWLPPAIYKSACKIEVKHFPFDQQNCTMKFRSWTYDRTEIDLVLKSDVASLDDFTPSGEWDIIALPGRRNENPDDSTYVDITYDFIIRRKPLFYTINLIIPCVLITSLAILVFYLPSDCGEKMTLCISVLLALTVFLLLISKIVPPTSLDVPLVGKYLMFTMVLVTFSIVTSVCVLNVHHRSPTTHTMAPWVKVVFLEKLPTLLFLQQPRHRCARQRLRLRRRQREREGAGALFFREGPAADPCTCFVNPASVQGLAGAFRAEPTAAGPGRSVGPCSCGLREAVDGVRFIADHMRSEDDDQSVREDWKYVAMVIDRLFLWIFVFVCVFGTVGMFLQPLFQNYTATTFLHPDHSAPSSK

Row | SMILES | EC50 ([1]; oocytes only expressing nAChRs) | effect on Na^+/K^+ ATPase steady-state current directly [2] | effect of Na^+/K^+ ATPase co-expression on agonist sensitivity [1] | steady state current of Na^+/K^+ ATPase ([2]; oocytes co-expressing Na^+/K^+ ATPase and nAChRs, 1 μM nicotine, with 1 μM DHβE to suppress nAChR currents)
1 | CC(=O)OCC[N+](C)(C)C [ACh, acetylcholine] | 63.2 ± 5.14 µM | – | – | –
2 | CO[C@H]1CC=C2CCN3CCC4=C(CC(=O)OC4)[C@]23C1 [DHβE, dihydro-β-erythroidine] | – | no effects | – | –
3 | O=[N+]([O-])NC1=NCCN1Cc1ccc(Cl)nc1 [imidacloprid] | – | – | increase agonist sensitivities | –
4 | CN1CCC[C@H]1c1cccnc1 [nicotine] | – | no effects | increase agonist sensitivities | increased significantly
